Laboratory results reported in patent US20150074835A1, “TRANSGENIC MOUSE EXPRESSING HUMAN LIPOPROTEIN (A) WITH DISABLED VITAMIN C GENE AND ITS USE AS A DISEASE TREATMENT MODEL” (priority 2013, published 2015).

Test system: Lpa+Gulo (−/−) mouse
Experiment: Lipoprotein-cholesterol, apo(a) particle and apoB-100 particle modulation (SPIFE / IFE of sera) under ascorbic acid supplementation
Type: in vivo
Conditions: 30 mg/L, 60 mg/L or 150 mg/L ascorbic acid in drinking water in addition to 500 ppm vitamin C in food (full supplementation); FIG. 6-8
Method: SPIFE Cholesterol Profiling (FIG. 2): The presence of complete Lp(a) lipoprotein particles in the Lp(a)+GULO(−/−) transgenic mouse serum was confirmed using the electrophoresis method with Helena (Beaumont, Tex.) SPIFE Cholesterol Profiling and Immunofixation electrophoresis (IFE). Immunofixation Electrophoresis (IFE) using the mouse sera was conducted on individual apo(a) (FIG. 3) containing particles and human apoB-100 containing particles (FIG. 4) as well, using human specific apo(a) and apoB-100 antibodies at Health Diagnostic Laboratory, Inc. (Richmond, Va.). The bands represent apo(a) and apoB-100 protein respectively in transgenic mouse and visualization of the same in serum derived from female and male mouse. Lipoprotein-cholesterol, Apo(a) particle, and ApoB-100 particle Modulation (FIG. 6, FIG. 7, and FIG. 8): The analysis was conducted on mouse sera from the Lpa+Gulo (−/−)mouse supplemented with either 30 mg/L, 60 mg/L or 150 mg/L of ascorbic acid provided in drinking water in addition to 500 ppm vitamin C provided in food (full supplementation). […] Sample order in FIGS. 6-8 correspond to the following key, with 30 vc referring to 30 mg/L Vitamin C group, 60 vc referring to 60 mg/L Vitamin C group, and sc referring to fully supplemented (150 mg/L Vitamin C+500 ppm Vitamin C in food) control group. The first three wells of each row were not used.

O=C1O[C@H]([C@@H](O)CO)C(O)=C1O [ascorbate, ascorbic acid]
modulation of the whole spectrum of lipoprotein cholesterols and/or lipoprotein particles in mouse sera: could be modulated
